Measured values reported in patent publication US20100093700A1, “Methods of Treating Mood Disorders” (priority 2007, published 2010).

Tests used:
[1] = target: T1, dopamine D2 receptor (Rattus norvegicus, UniProt P61169); assay: In-vitro binding, dopamine D2 receptor; details: dihydrochloride salt; read-out: binding affinity for dopamine D2 receptor (K1)
T1 construct: relative to dopamine (D2) receptors in the brain; from tissue; host or cells: brain

[2] = tested on: apomorphine climbing; assay: Standard apomorphine climbing mouse assay; type: in vivo; details: mice, p.o.
Description: (§1) An assessment of dopamine antagonism was made in rodent models.

[3] = target: brain serotonin 5-HT2 receptor (UniProt P14842); assay: In-vitro binding, brain serotonin 5-HT2 receptor; details: dihydrochloride salt; read-out: binding affinity for brain serotonin 5-HT2 receptor (K1)
[4] = target: T2, dopamine D1 receptor (Rattus norvegicus, UniProt P18901); assay: In-vitro binding, dopamine D1 receptor; details: dihydrochloride salt; read-out: binding affinity for dopamine D1 receptor (K1)
T2 construct: from tissue; host or cells: brain

[5] = tested on: immobility; assay: Mouse forced swim test (FST); type: in vivo; details: 15 minutes prior
Procedure: The mouse forced swim test (FST) has been used to assess antidepressant potential of novel compounds (Porsolt; Lucki). Methods: Mice were placed in cylinders of water (25.0° C.±1.5° C.) for 6 minutes. The amount of immobility was quantified during the last 4 min of each session. The experimental observer was blind to the treatment conditions. […] Imipramine 45.0 mg/kg and citalopram 15.0 mg/kg were measured as the salt and administered ip 60 minutes prior to the behavioral session.

[6] = Brain exposure in rats; type: in vivo; details: one hour after 30 μmol/kg po
Procedure: Brain exposure was measured in rats. For concentrations of 11-piperazin-1-yldibenzo[b,f][1,4]thiazepine in brain, rats were dosed either po or iv (n=3 per dose route). At one hour after compound administration, blood and brain samples were obtained and then processed for analysis using HPLC/MS to measure concentrations of 11-piperazin-1-yldibenzo[b,f][1,4]thiazepine.

[7] = tested on: immobility; assay: Tail suspension test; type: in vivo, mice; details: for reduction of immobility relative to vehicle control group: p<0.01
Procedure: In a first experiment, mice (n−10/group) were treated with vehicle, 2.0, 5.0, or 10.0 mg/kg of 11-piperazin-1-yldibenzo[b,f][1,4]thiazepine s.c. 15 minutes prior to the test session. Mice were suspended from their tails for 7 minutes. During the last 5 minutes of the test, the duration of immobility was recorded. In a second experiment, mice (n=10/group) were treated with vehicle, 30 mg/kg 11-piperazin-1-yldibenzo[b,f][1,4]thiazepine, or 30 mg/kg fluoxetine p.o. 60 minutes prior to the test session. Mice were suspended from their tails for 7 minutes. During the last 5 minutes of the test, the duration of immobility was recorded.

[8] = target: T3, D1 receptors (Homo sapiens, UniProt P21728); assay: PET scans of primate subjects, D1; type: in vivo; details: preliminary PET
T3 construct: from tissue; host or cells: brain of living primates (PET)
T3 sequence (P21728 whole entry): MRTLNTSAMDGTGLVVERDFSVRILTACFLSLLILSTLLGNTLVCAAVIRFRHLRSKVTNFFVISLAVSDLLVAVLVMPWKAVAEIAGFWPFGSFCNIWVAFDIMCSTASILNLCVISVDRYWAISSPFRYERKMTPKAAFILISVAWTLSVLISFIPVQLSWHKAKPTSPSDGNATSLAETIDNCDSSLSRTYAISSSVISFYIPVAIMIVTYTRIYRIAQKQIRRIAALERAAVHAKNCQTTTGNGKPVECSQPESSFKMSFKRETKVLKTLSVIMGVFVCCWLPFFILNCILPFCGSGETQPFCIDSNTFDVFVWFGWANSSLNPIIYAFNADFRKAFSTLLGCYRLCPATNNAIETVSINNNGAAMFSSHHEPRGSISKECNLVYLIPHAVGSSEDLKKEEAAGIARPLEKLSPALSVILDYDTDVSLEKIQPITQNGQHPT
Description: (§2) The compound of Formula I is a dibenzothiazepine that has shown antidopaminergic activity.

[9] = target: T4, 5-HT1A receptors (Homo sapiens, UniProt P08908); assay: PET scans of primate subjects, 5-HT1A; type: in vivo; details: preliminary PET
T4 construct: from tissue; host or cells: brain of living primates (PET)
T4 sequence (P08908 whole entry): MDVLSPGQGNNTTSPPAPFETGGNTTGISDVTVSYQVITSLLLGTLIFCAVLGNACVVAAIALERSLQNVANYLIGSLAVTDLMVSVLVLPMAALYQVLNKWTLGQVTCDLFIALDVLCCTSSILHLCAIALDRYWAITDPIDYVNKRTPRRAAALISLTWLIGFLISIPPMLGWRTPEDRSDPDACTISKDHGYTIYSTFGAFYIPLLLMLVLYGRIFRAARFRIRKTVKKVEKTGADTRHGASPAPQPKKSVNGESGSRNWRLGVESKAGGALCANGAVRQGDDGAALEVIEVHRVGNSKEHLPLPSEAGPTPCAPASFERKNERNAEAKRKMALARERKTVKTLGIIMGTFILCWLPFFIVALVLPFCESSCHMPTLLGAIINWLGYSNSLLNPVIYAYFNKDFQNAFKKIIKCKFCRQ
Description: as §2

[10] = target: T5, Adrenergic α1D (Homo sapiens, UniProt P25100); assay: Radioligand binding 203400 Adrenergic α1D; details: hum
T5 construct: host or cells: HEK-293
T5 sequence (P25100 whole entry): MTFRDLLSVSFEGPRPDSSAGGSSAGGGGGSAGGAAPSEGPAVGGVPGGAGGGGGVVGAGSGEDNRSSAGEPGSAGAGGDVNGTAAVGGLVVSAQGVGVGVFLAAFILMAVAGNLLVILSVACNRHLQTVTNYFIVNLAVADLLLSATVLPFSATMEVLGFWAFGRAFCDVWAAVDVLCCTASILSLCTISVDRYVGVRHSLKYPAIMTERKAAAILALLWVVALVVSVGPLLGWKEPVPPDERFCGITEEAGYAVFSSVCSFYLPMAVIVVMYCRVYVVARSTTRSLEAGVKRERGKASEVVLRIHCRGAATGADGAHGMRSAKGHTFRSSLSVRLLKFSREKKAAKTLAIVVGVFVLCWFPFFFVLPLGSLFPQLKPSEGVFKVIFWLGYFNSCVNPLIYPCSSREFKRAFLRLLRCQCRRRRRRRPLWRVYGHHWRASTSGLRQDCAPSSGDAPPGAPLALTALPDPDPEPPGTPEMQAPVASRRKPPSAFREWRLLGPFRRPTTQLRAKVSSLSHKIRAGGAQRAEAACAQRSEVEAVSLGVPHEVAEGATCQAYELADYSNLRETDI
Description: (§3) Receptor binding methods, α-adrenergic subtype specific, are provided below.

[11] = target: T6, 5-HT2A receptors (Homo sapiens, UniProt P28223); assay: PET scans of primate subjects, 5-HT2A; type: in vivo; details: preliminary PET
T6 construct: from tissue; host or cells: brain of living primates (PET)
T6 sequence (P28223 whole entry): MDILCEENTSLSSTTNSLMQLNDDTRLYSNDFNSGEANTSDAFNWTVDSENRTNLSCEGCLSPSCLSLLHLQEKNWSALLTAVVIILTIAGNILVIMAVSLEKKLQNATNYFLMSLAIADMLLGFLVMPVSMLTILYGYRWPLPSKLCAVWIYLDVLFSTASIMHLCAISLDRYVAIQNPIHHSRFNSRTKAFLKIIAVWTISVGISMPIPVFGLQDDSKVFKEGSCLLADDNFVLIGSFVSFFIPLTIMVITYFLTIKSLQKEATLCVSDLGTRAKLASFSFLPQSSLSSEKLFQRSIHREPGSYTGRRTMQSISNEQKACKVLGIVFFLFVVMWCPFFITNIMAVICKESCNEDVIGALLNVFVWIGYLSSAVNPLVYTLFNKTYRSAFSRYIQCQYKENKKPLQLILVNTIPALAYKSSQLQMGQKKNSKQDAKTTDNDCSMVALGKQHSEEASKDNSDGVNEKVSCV
Description: as §2

[12] = target: T7, Adrenergic α1B (Rattus norvegicus, UniProt P15823); assay: Radioligand binding 203200 Adrenergic α1B
T7 construct: 203200
T7 sequence (P15823 whole entry): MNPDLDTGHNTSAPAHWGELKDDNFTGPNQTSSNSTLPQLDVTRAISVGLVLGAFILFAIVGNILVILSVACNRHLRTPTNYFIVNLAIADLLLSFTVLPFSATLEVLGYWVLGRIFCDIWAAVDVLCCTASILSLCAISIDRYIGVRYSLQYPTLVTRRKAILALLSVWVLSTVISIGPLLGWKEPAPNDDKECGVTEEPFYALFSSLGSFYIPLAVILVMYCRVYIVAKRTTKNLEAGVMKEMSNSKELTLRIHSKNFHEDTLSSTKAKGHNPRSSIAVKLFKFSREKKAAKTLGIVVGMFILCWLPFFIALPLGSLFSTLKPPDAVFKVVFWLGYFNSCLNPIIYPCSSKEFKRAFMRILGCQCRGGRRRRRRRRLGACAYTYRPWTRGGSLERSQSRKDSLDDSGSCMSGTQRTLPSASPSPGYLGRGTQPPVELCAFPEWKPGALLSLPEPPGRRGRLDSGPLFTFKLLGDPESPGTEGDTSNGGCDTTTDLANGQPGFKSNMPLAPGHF
Description: as §3

[13] = target: Adrenergic α2C (Homo sapiens, UniProt P18825); assay: Radioligand binding Adrenergic α2C; details: hum
Sequence of Adrenergic α2C (P18825 whole entry): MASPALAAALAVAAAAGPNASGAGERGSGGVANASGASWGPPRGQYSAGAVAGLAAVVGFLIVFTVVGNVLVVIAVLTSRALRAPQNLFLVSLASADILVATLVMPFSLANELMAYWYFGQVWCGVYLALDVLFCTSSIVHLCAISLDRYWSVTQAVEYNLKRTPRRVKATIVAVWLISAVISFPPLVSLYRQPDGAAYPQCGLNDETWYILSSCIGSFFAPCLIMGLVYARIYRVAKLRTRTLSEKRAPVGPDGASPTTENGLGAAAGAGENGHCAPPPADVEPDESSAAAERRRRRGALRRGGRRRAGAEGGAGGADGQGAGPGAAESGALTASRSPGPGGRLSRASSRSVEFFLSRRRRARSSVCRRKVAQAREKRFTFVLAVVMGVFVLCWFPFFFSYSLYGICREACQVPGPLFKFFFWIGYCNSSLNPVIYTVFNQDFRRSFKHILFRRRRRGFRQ

[14] = tested on: Adrenergic α1* Non-Selective; assay: Radioligand binding 203500 Adrenergic α1 Non-Selective; details: rat
Description: (§4) Receptor binding methods, α-adrenergic nonselective, are provided below.

[15] = tested on: Adrenergic α2* Non-Selective; assay: Radioligand binding 203900 Adrenergic α2 Non-Selective; details: rat
Description: as §4

[16] = target: T8, 5HT Transporter (Homo sapiens, UniProt P31645); assay: PET scans of primate subjects, 5HT Transporter; type: in vivo; details: preliminary PET
T8 construct: from tissue; host or cells: brain of living primates (PET)
Description: as §2

[17] = Oral bioavailability in monkeys; type: in vivo; details: cynomolgus monkey, plasma
[18] = Oral bioavailability in dogs; type: in vivo; details: dog, plasma, Beagle dogs
[19] = tested on: D-amphetamine locomotor activity; assay: D-amphetamine locomotor activity test; type: in vivo, rat; details: rats, s.c., freebase
Description: as §1

[20] = target: T9, Adrenergic α1A (Rattus norvegicus, UniProt P43140); assay: Radioligand binding 203100 Adrenergic α1A
T9 construct: 203100
T9 sequence (P43140 whole entry): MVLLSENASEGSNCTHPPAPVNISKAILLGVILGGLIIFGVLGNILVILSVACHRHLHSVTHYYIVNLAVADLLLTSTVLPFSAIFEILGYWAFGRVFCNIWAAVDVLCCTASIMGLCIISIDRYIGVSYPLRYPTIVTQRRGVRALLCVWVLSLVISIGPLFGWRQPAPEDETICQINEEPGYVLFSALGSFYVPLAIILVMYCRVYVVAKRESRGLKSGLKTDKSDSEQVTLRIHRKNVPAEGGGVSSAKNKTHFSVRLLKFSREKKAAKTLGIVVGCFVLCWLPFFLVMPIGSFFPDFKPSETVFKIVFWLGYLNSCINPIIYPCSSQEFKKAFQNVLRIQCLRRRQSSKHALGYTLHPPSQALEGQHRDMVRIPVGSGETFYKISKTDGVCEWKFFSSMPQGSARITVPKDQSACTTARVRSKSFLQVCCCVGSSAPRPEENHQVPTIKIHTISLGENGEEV
Description: as §3

[21] = target: Adrenergic α2B (Homo sapiens, UniProt P18089); assay: Radioligand binding Adrenergic α2B; details: hum
[22] = target: Transporter, Norepinephrine (NET) (Homo sapiens, UniProt P23975); assay: Radioligand binding assay, norepinephrine transporter
Sequence of Transporter, Norepinephrine (NET) (P23975 whole entry): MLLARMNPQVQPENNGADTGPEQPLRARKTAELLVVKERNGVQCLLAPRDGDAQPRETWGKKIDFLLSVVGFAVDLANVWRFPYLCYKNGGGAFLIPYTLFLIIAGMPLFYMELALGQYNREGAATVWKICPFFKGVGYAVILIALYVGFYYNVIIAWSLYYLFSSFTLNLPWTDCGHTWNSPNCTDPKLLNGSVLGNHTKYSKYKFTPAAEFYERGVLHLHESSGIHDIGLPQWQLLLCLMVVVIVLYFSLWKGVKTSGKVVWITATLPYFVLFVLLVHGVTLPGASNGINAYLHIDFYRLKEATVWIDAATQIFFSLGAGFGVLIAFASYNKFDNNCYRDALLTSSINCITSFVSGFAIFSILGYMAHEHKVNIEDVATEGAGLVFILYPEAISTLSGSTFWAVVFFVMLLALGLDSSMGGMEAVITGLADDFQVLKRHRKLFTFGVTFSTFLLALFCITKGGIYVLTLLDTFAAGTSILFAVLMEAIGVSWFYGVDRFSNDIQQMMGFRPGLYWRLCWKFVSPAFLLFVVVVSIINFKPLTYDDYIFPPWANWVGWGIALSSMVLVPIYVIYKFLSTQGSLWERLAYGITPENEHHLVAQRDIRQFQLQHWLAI
Procedure: The following examples set forth parameters for the radioligand binding assay that was carried out.

[23] = target: Uptake, Norepinephrine (Homo sapiens, UniProt P23975); assay: Functional assay measuring norepinephrine uptake; type: cell-based; details: [3H]Norepinephrine uptake, MDCK cells; read-out: EC50/IC50
Sequence of Uptake, Norepinephrine (P23975 whole entry): as above
Procedure: The following examples set forth parameters for the functional assay measuring norepinephrine uptake that was carried out.

[24] = target: Adrenergic α2A (Homo sapiens, UniProt P08913); assay: Radioligand binding Adrenergic α2A; details: hum
Sequence of Adrenergic α2A (P08913 whole entry): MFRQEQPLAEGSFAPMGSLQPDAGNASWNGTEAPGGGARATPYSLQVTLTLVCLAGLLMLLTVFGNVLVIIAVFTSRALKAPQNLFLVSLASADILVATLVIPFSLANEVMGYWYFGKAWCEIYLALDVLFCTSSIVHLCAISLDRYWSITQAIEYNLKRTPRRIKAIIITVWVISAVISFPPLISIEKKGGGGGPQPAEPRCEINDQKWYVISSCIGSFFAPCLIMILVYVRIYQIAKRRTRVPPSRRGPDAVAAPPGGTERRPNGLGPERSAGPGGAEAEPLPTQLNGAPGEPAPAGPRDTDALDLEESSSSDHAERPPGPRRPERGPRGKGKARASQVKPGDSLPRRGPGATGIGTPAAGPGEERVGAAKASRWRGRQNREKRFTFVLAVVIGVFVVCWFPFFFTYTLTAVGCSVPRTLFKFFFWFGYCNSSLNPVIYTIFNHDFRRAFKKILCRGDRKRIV

[25] = target: D2 receptors (Homo sapiens, UniProt P14416); assay: PET scans of primate subjects, D2; type: in vivo; details: preliminary PET
Sequence of D2 receptors (P14416 whole entry): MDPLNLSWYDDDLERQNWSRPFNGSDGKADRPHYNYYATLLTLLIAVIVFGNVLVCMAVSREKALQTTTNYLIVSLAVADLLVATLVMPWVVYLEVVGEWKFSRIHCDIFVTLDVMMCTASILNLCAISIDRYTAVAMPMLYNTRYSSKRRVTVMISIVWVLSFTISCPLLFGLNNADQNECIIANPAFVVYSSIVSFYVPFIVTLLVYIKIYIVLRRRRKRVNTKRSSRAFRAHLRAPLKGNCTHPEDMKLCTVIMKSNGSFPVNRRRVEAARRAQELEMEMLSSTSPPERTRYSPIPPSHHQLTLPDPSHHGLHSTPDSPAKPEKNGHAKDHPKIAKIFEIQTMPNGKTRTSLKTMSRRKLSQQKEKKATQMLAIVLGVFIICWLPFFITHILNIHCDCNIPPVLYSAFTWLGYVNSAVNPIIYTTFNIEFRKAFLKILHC

[26] = 30 mg/kg p.o., 60 minutes prior

For Cl.Cl.c1ccc2c(c1)N=C(N1CCNCC1)c1ccccc1S2 [11-piperazin-1-yldibenzo[b,f][1,4]thiazepine, dihydrochloride salt], the Ki [1] was 234 nM, the “in vivo antipsychotic activity, apomorphine mouse assay” value [2] was “not found to be efficacious” and the Ki [3] was 27 nM. For the same molecule, the Ki [4] was 1490 nM.
In the case of OCCOCCN1CCN(C2=Nc3ccccc3Sc3ccccc32)CC1 [Quetiapine, quetiapine, reference compound], the “effect on immobility in FST” value ([5]; 5.0, 10.0 and 20.0 mg/kg sc) is reported as “no effect”.
For c1ccc2c(c1)N=C(N1CCNCC1)c1ccccc1S2 [11-piperazin-1-yldibenzo[b,f][1,4]thiazepine], the “average concentration in brain tissue” value [6] was 2240 nmol/g, the “reduction of immobility relative to vehicle control group” value ([7]; 10.0 mg/kg s.c.) was “more than ½” and the “reduction of immobility relative to vehicle control group” value [7, 26] was “more than ½”. For the same molecule, the “effect on duration of immobility” value ([7]; 2.0, 5.0 or 10.0 mg/kg s.c., 15 minutes prior) was “reduced immobility at all doses tested”, the “receptor occupancy (PET), D1” value [8] was “occupies” and the “receptor occupancy (PET), 5-HT1A” value [9] was “occupies”. The “effect on immobility in FST” value ([5]; 10.0 mg/kg sc) was “antidepressant effects in this assay comparable to imipramine”, the “n (Hill coefficient)” value [10] was 0.984 ± 0.111 and the “in vivo antipsychotic activity, apomorphine mouse assay” value [2] was “not shown to be efficacious”. The “receptor occupancy (PET), 5-HT2A” value [11] was “occupies”, the “n (Hill coefficient)” value [12] was 1.1 ± 0.024 and the “n (Hill coefficient)” value [13] was 1.1 ± 0.079. The “% INH.” value ([14]; 0.1 μM) was 61%, the IC50 [14] was 69.3 nM and the Ki [14] was 37.2 nM. The “% INH.” value ([15]; 10 μM) was 73%, the IC50 [15] was 1410 nM and the Ki [15] was 1290 nM. For the same molecule, the “occupancy (PET), 5HT Transporter” value [16] was “occupies”, the bioavailability [17] was 37% and the bioavailability [18] was 42%. The “in vivo antipsychotic activity, D-amphetamine locomotor activity test” value [19] was “not found to be efficacious”, the “in vivo antipsychotic activity, D-amphetamine locomotor activity test” value ([19]; listed as Formula I) was “not shown to be efficacious” and the “n (Hill coefficient)” value [20] was 1.03 ± 0.089. For the same molecule, the “n (Hill coefficient)” value [21] was 0.902 ± 0.055, the inhibition at 10 µM [22] was 97% and the IC50 [23] was 13.4 nM. The “n (Hill coefficient)” value [24] was 0.969 ± 0.012 and the “receptor occupancy (PET), D2” value [25] was “occupies”.
For CNCCC(Oc1ccc(C(F)(F)F)cc1)c1ccccc1 (centres unmarked) [fluoxetine, reference compound], the “reduction of immobility relative to vehicle control group” value [7, 26] was “more than ½”.
